Reference: patent publication US20170334899A1, “AMINO-SUBSTITUTED ISOTHIAZOLES” (Bayer Pharma Aktiengesellschaft, priority 2014, published 2017)

Legend:
[1] = target: T1, CDK2/CycE (Homo sapiens, UniProt P24941); assay: CDK2/CycE kinase assay (TR-FRET); format: biochemical; conditions: avg, read-out: CDK2 avg (IC50 [mol/l])
T1 construct: GST; purchased ProQinase GmbH (Freiburg, Germany); host or cells: insect cells (Sf9)
In short: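 GST-tagged human CDK2 and CycE from Sf9 cells, preincubated 15 min with compound, then 25 min at 22° C. with 10 μM ATP and 0.75 μM biotinylated Rb-derived peptide (final). Phospho-substrate read by TR-FRET (anti-pRB pSer807/pSer811, Eu anti-mouse IgG, streptavidin-XL665), 665/620 nm ratio, normalised to no-inhibitor and no-enzyme controls.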

[2] = target: T2, catalytic domain of human Bub1 (amino acids 704-1085) (Homo sapiens, UniProt O43683); assay: Bub1 kinase assay (TR-FRET); format: biochemical; conditions: 10 μM ATP, avg, read-out: Bub1 avg (IC50 [mol/l])
T2 construct: catalytic domain of human Bub1 (amino acids 704-1085); His6 (N); made in house; host or cells: insect cells (Hi5)
In short: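 Readout is the 665/620 nm TR-FRET ratio from anti-phosphoserine antibody, Eu-labelled anti-mouse IgG and streptavidin-XL665, scaled between no-enzyme and uninhibited controls. Reaction: 1 μM biotinylated peptide, 10 μM ATP, 60 min, 22 °C, after 15 min compound preincubation with His6-Bub1 (704-1085, insect-expressed, ~200 ng/ml).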

T2 sequence (O43683 704-1085): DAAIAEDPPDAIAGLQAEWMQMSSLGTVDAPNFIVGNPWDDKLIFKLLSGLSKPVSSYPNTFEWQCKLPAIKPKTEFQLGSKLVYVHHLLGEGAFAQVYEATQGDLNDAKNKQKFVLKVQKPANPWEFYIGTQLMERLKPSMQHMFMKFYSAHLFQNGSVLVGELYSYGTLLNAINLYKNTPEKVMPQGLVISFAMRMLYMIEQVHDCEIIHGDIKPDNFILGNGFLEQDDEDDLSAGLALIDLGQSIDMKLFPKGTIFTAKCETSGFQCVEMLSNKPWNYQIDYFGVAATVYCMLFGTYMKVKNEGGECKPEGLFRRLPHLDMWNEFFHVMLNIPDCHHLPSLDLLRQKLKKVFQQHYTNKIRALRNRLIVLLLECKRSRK

SMILES | IC50 [1] [µM] | IC50 [2] [µM]
Cc1nsc(Nc2cnc3ccccc3n2)c1C(=O)Nc1cccc(C(=O)N2CCN(C(=O)OC(C)(C)C)CC2)c1 [Example 55, tert-Butyl 4-[3-({[3-methyl-5-(quinoxalin-2-ylamino)-1,2-thiazol-4-yl]carbonyl}amino)-benzoyl]piperazine-1-carboxylate] | ≥ 20 | ≥ 20
Cc1nsc(Nc2cnc3ccccc3n2)c1C(=O)Nc1cccc(C(=O)N[C@@H](CCC(N)=O)C(=O)OC(C)(C)C)c1 [Example 56, tert-butyl N^2-[3-({[3-methyl-5-(quinoxalin-2-ylamino)-1,2-thiazol-4-yl]carbonyl}amino)-benzoyl]glutaminate] | ≥ 20 | ≥ 20
Cc1nsc(Nc2cnc3ccccc3n2)c1C(=O)Nc1cccc(C(=O)N[C@H](C(=O)OC(C)(C)C)[C@@H](C)OC(C)(C)C)c1 [Example 57, tert-Butyl O-tert-butyl-N-[3-({[3-methyl-5-(quinoxalin-2-ylamino)-1,2-thiazol-4 yl]carbonyl}amino)-benzoyl]threoninate] | ≥ 20 | ≥ 20
Cc1nsc(Nc2cnc(C(F)(F)F)cn2)c1C(=O)Nc1ccc(F)c(OCC2CCN(CC(F)(F)F)C2)c1 (stereo not shown) [Example 318, N-(4-fluoro-3-{[1-(2,2,2-trifluoroethyl)pyrrolidin-3-yl]methoxy}phenyl)-3-methyl-5-{[5-(trifluoromethyl)pyrazin-2-yl]amino}-1,2-thiazole-4-carboxamide] | > 20 | > 20
Cc1nsc(Nc2cnc(C(F)(F)F)cn2)c1C(=O)Nc1ccc(OC[C@H]2CCCN(CCC(F)(F)F)C2)nc1 [Example 378, 3-methyl-5-{[5-(trifluoromethyl)pyrazin-2-yl]amino}-N-(6-{[(3S)-1-(3,3,3-trifluoropropyl)piperidin-3-yl]methoxy}pyridin-3-yl)-1,2-thiazole-4-carboxamide] | > 20 | ≥ 20
CCCN1CCC(COc2ccc(NC(=O)c3c(C)nsc3Nc3cnc(C(F)(F)F)cn3)cn2)C(F)(F)C1 (stereo not shown) [Example 394, N-{6-[(3,3-difluoro-1-propylpiperidin-4-yl)methoxy]pyridin-3-yl}-3-methyl-5-{[5-(trifluoromethyl)pyrazin-2-yl]amino}-1,2-thiazole-4-carboxamide] | > 20 | > 20
Cc1nsc(Nc2cnc(C(F)(F)F)cn2)c1C(=O)Nc1ccc(F)c(OC[C@H]2CCCN(CC(F)F)C2)c1 [Example 400, N-(3-{[(3S)-1-(2,2-difluoroethyl)piperidin-3-yl]methoxy}-4-fluorophenyl)-3-methyl-5-{[5-(trifluoromethyl)pyrazin-2-yl]amino}-1,2-thiazole-4-carboxamide] | > 20 | > 20
Cc1nsc(Nc2cnc(C(F)(F)F)cn2)c1C(=O)Nc1ccc(OCC2CCN(CC(F)F)CC2(F)F)nc1 (stereo not shown) [Example 401, N-(6-{[1-(2,2-difluoroethyl)-3,3-difluoropiperidin-4-yl]methoxy}pyridin-3-yl)-3-methyl-5-{[5-(trifluoromethyl)pyrazin-2-yl]amino}-1,2-thiazole-4-carboxamide] | > 20 | > 20
Cc1nsc(Nc2cnc(C(F)(F)F)cn2)c1C(=O)Nc1ccc(OCC2CCN(CCC(F)(F)F)CC2(F)F)nc1 (stereo not shown) [Example 402, N-(6-{[3,3-difluoro-1-(3,3,3-trifluoropropyl)piperidin-4-yl]methoxy}pyridin-3-yl)-3-methyl-5-{[5-(trifluoromethyl)pyrazin-2-yl]amino}-1,2-thiazole-4-carboxamide] | > 20 | > 20
Cc1nsc(Nc2cnc(C(F)(F)F)cn2)c1C(=O)Nc1ccc(F)c(OC[C@@H]2CCN(CC(F)F)C2)c1 [Example 403, N-(3-{[(3R)-1-(2,2-difluoroethyl)pyrrolidin-3-yl]methoxy}-4-fluorophenyl)-3-methyl-5-{[5-(trifluoromethyl)pyrazin-2-yl]amino}-1,2-thiazole-4-carboxamide] | > 20 | > 20
Cc1nsc(Nc2cnc(C(F)(F)F)cn2)c1C(=O)Nc1ccc(OC[C@H]2CCN(CC(F)(F)F)C2)nc1 [Example 404, 3-Methyl-N-(6-{[(3S)-1-(2,2,2-trifluoroethyl)pyrrolidin-3-yl]methoxy}pyridin-3-yl)-5-{[5-(trifluoromethyl)pyrazin-2-yl]amino}-1,2-thiazole-4-carboxamide] | > 20 | > 20
CCN1CCC(Oc2ccc(NC(=O)c3c(C)nsc3Nc3cnc(C(F)(F)F)cn3)cn2)C(F)(F)C1 (stereo not shown) [Example 406, N-{6-[(1-Ethyl-3,3-difluoropiperidin-4-yl)oxy]pyridin-3-yl}-3-methyl-5-{[5-(trifluoromethyl)pyrazin-2-yl]amino}-1,2-thiazole-4-carboxamide] | > 20 | > 20
Cc1nsc(Nc2cnc(C(F)(F)F)cn2)c1C(=O)Nc1ccc(OCCN2CCC(F)(F)CC2)nc1 [Example 407, N-{6-[2-(4,4-Difluoropiperidin-1-yl)ethoxy]pyridin-3-yl}-3-methyl-5-{[5-(trifluoromethyl)pyrazin-2-yl]amino}-1,2-thiazole-4-carboxamide] | > 20 | > 20
CCCN1C[C@H](F)[C@H](Oc2ccc(NC(=O)c3c(C)nsc3Nc3cnc(C(F)(F)F)cn3)cn2)C1 [Example 408, N-(6-{[(3R,4S)-4-Fluoro-1-propylpyrrolidin-3-yl]oxy}pyridin-3-yl)-3-methyl-5-{[5-(trifluoromethyl)pyrazin-2-yl]amino}-1,2-thiazole-4-carboxamide] | > 20 | > 20
Cc1nsc(Nc2cnc(C(F)(F)F)cn2)c1C(=O)Nc1ccc(O[C@@H]2CN(CCC(F)(F)F)C[C@@H]2F)nc1 [Example 409, N-(6-{[(3R,4S)-4-Fluoro-1-(3,3,3-trifluoropropyl)pyrrolidin-3-yl]oxy}pyridin-3-yl)-3-methyl-5-{[5-(trifluoromethyl)pyrazin-2-yl]amino}-1,2-thiazole-4-carboxamide] | > 20 | > 20
Cc1nsc(Nc2cnc(C(F)(F)F)cn2)c1C(=O)Nc1ccc(O[C@@H]2CN(CC(F)(F)F)C[C@@H]2F)nc1 [Example 410, N-(6-{[(3R,4S)-4-Fluoro-1-(2,2,2-trifluoroethyl)pyrrolidin-3-yl]oxy}pyridin-3-yl)-3-methyl-5-{[5-(trifluoromethyl)pyrazin-2-yl]amino}-1,2-thiazole-4-carboxamide] | > 20 | > 20
Cc1nsc(Nc2cnc(C(F)(F)F)cn2)c1C(=O)Nc1ccc(O[C@@H]2CN(CC(F)F)C[C@@H]2F)nc1 [Example 411, N-(6-{[(3R,4S)-1-(2,2-Difluoroethyl)-4-fluoropyrrolidin-3-yl]oxy}pyridin-3-yl)-3-methyl-5-{[5-(trifluoromethyl)pyrazin-2-yl]amino}-1,2-thiazole-4-carboxamide] | > 20 | > 20
Cc1nsc(Nc2cnc(C(F)(F)F)cn2)c1C(=O)Nc1ccc(F)c(O[C@@H]2CCN(CC(F)F)C2)c1 [Example 412, N-(3-{[(3R)-1-(2,2-Difluoroethyl)pyrrolidin-3-yl]oxy}-4-fluorophenyl)-3-methyl-5-{[5-(trifluoromethyl)pyrazin-2-yl]amino}-1,2-thiazole-4-carboxamide] | > 20 | > 20
Cc1nsc(Nc2cnc(C(F)(F)F)cn2)c1C(=O)Nc1ccc(F)c(O[C@@H]2CCN(CC(F)(F)F)C2)c1 [Example 413, N-(4-Fluoro-3-{[(3R)-1-(2,2,2-trifluoroethyl)pyrrolidin-3-yl]oxy}phenyl)-3-methyl-5-{[5-(trifluoromethyl)pyrazin-2-yl]amino}-1,2-thiazole-4-carboxamide] | > 20 | > 20
Cc1nsc(Nc2cnc(C(F)(F)F)cn2)c1C(=O)Nc1ccc(F)c(O[C@@H]2CCN(CCC(F)(F)F)C2)c1 [Example 414, N-(4-Fluoro-3-{[(3R)-1-(3,3,3-trifluoropropyl)pyrrolidin-3-yl]oxy}phenyl)-3-methyl-5-{[5-(trifluoromethyl)pyrazin-2-yl]amino}-1,2-thiazole-4-carboxamide] | > 20 | > 20
Cc1nsc(Nc2cnc(C(F)(F)F)cn2)c1C(=O)Nc1ccc(F)c(O[C@H]2CCN(CCC(F)(F)F)C2)c1 [Example 415, N-(4-Fluoro-3-{[(3S)-1-(3,3,3-trifluoropropyl)pyrrolidin-3-yl]oxy}phenyl)-3-methyl-5-{[5-(trifluoromethyl)pyrazin-2-yl]amino}-1,2-thiazole-4-carboxamide] | > 20 | > 20
Cc1nsc(Nc2cnc(C(F)(F)F)cn2)c1C(=O)Nc1ccc(F)c(O[C@H]2CCN(CC(F)(F)F)C2)c1 [Example 416, N-(4-Fluoro-3-{[(35)-1-(2,2,2-trifluoroethyl)pyrrolidin-3-yl]oxy}phenyl)-3-methyl-5-{[5-(trifluoromethyl)pyrazin-2-yl]amino}-1,2-thiazole-4-carboxamide] | > 20 | > 20
Cc1nsc(Nc2cnc(C(F)(F)F)cn2)c1C(=O)Nc1ccc(F)c(O[C@H]2CCN(CC(F)F)C2)c1 [Example 417, N-(3-{[(3S)-1-(2,2-Difluoroethyl)pyrrolidin-3-yl]oxy}-4-fluorophenyl)-3-methyl-5-{[5-(trifluoromethyl)pyrazin-2-yl]amino}-1,2-thiazole-4-carboxamide] | > 20 | 1.8
